≈ marks a conversion by molar mass, not a printed value. Structures can show the parent of a compound that is named as a salt. Where two headings read alike, the source gives them in different places.
How the values were obtained:
[1] = pH 7.4
[2] = pH 7.4; remark: listed apart in the source
[3] = test system: SARS-COV-2; assay: microbe, parasite or virus in culture; type: cell-based; settings: for SI: SARS-COV-2, CC50/EC50; for EC50: Severe acute respiratory syndrome coronavirus 2
[4] = in vitro; settings: human
[5] = Mouse pharmacokinetics, blood levels after single oral dose; type: in vivo, female C57BL/6 mice
Experimental: The present study aimed at the determination of pharmacokinetic parameters of Example 2 and it's metabolites (NHC, NHC-MP, NHC-DP and NHC-TP) in blood after single dose oral administration of 96.5 μmol/kg to female C57BL/6 mice (body weight 20 to 21 g). Blood samples were obtained from the retrobulbar venous plexus into Li-Heparin tubes (Minivette POCT, […]). The vehicle for preparation of the dose formulations was PBS. The samples were analysed by high resolution LC-MS at Pharmacelsus GmbH, Germany.

[6] = molecular target: N-terminally truncated recombinant hDHODH enzyme (Homo sapiens, UniProt Q02127); assay: Human DHODH inhibition assay; type: biochemical; settings: pH 8.0, 30° C.
Experimental: Briefly, the hDHODH concentration was adjusted in a way that an average slope of approximately 0.2 AU/min served as the positive control (e.g. without inhibitor). […] The reaction was started by adding dihydroorotate and measuring the absorption at 600 nm for 2 min. For the determination of the IC50 values, each data point was recorded in triplicate. For the determination of the inhibitory constant Ki, the KM values for DHO and decylubichinon were determined. Afterwards, the compounds were diluted in a dilution series depending on their IC50 values in DMSO. The dilution was: 0 ×IC50 , 1/4×IC50 , 1/2×IC50 , 1×IC50 , 2×IC50 , 4×IC50 . […] Each data point was recorded in duplicate.

[7] = cited from earlier work
[8] = Microsomal stability; type: in vitro ADME; settings: compared to non-deuterated matched pair C26
[9] = test system: RSV A2; assay: RSV virus titers by endpoint titration (CCID50), mono and combination; type: cell-based; settings: MA-104 cells, virus control 4.0
[10] = test system: HRV-14; assay: HRV-14 virus titers by endpoint titration (CCID50), mono and combination; type: cell-based; settings: Hela cells, virus control 6.7
[11] = physchem; settings: pH 7.4, aqueous buffer, kinetic from dmso stock
[12] = physchem; settings: fassgf or other biorelevant, kinetic from dmso stock
[13] = physchem; settings: simulated gastric fluid
[14] = physchem; settings: pH 7.4
[15] = A-B permeability (Caco-2, pH 6.5/7.4); settings: human, A-B, Caco-2, pH 6.5/7.4, test conc. 1.0E−05M
[16] = B-A permeability (Caco-2, pH 6.5/7.4); settings: human, test conc. 1.0E−05M
[17] = SARS-COV-2 viral replication (YFP), read-out: EC50
[18] = metabolite in blood of mice after single oral 96.5 μmol/kg Example 2
[19] = Caco-2, pH 6.5, Percent Recovery 1st
[20] = Caco-2, pH 6.5, Percent Recovery 2nd
[21] = Caco-2, pH 6.5, Percent Recovery Mean
[22] = Caco-2, pH 6.5, Permeability 1st
[23] = Caco-2, pH 6.5, Permeability 2nd
[24] = Caco-2, pH 6.5, Permeability Mean

Chain of N-terminally truncated recombinant hDHODH enzyme (Q02127 whole entry, looked up, the tested form may be a part): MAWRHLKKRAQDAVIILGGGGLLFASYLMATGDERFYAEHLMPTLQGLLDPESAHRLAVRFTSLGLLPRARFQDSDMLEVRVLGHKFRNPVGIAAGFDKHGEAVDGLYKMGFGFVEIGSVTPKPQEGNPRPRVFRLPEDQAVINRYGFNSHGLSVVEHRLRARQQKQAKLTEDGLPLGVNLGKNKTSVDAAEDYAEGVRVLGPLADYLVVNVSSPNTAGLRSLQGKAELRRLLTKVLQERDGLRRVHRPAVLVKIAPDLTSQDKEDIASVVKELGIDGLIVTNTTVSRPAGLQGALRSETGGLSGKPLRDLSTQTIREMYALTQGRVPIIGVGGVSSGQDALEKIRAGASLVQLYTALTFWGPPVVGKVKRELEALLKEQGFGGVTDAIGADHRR

With O=c1nc(NO)ccn1[C@@H]1O[C@H](CO)[C@@H](O)[C@H]1O [NHC, β-D-N^4-hydroxycytidine] as the molecule, how does the “Solubility 1st” value [1] read?
Its value is 349.99 µM (≈ 90.7 µg/mL).

What about the “Solubility 2nd” value [1] of the same molecule?
The value was 362.05 µM (≈ 93.8 µg/mL).

What about the “Solubility Mean” value [1] of the same molecule?
The value was over 200 µM.

And the logD [2]?
Its logD is 1.12.

For [2H]C([2H])([2H])Oc1cccc(-c2cc(F)c(NC(=O)C3=C(C(=O)O)CCC3)c(F)c2)c1 [Example 51, 2-((3,5-Difluoro-3′-(methoxy-d3)-[1,1′-biphenyl]-4-yl)carbamoyl) cyclopent-1-ene-1-carboxylic acid], which SI [3] is on record?
The SI was over 5.

What about the EC50 [3, 17] of the same molecule?
Its EC50 is under 20 µM.

And the CC50 [4]?
The CC50 was over 100 µM.

Which SI [3] does the source give for C[N+](C)(C)CCOP(=O)([O-])OP(=O)([O-])OC[C@H]1O[C@@H](n2ccc(N)nc2=O)[C@H](O)[C@@H]1O.[Na+] [Example C1, Citicoline sodium, reference compound] here?
Its SI is “inactive”.

What about the EC50 [3, 17] of the same molecule?
The EC50 was over 50 µM.

What about the CC50 [4] of the same molecule?
The CC50 was over 100 µM.

With O=c1nc(NO)ccn1[C@@H]1O[C@H](COP(=O)(O)OP(=O)(O)OP(=O)(O)O)[C@@H](O)[C@H]1O [NHC-TP, β-D-N^4-hydroxycytidine 5′-triphosphate, reference compound] as the molecule, how does the maximal blood concentration [5, 18] read?
Its maximal blood concentration is 611+100 nM.

And the “time of maximal blood concentration post dose” value [5, 18]?
Its value is 4 h.

Which Ki ([6]; substrate DHO varied, read-out: Ki (DHO)) does the source give for COc1cccc(C2=CCC=C(NC(=O)C3=C(C(=O)O)CCC3)C(F)=C2)c1 [Example C26] here?
Its Ki is 0.592 µM.

What about the Ki ([6]; substrate decylubichinon varied, read-out: Ki (decylubichinon)) of the same molecule?
The Ki was 0.245 µM.

For C[N+](C)(C)CCOP(=O)(O)OP(=O)([O-])OC[C@H]1O[C@@H](n2ccc(N)nc2=O)[C@H](O)[C@@H]1O [Citicoline, cytidine 5′-diphosphocholine], which oral bioavailability [7] is on record?
The oral bioavailability was “more than 90%”.

For O=c1nc(NO)ccn1[C@@H]1O[C@H](COP(=O)(O)O)[C@@H](O)[C@H]1O [NHC-MP], which “AUC (0-inf)” value [5, 18] is on record?
Its value is 1.624 µM·h.

What about the elimination half-life [5, 18] of the same molecule?
The elimination half-life was 7.3 h.

And the maximal blood concentration [5, 18]?
Its maximal blood concentration is 274+41.4 nM.

And the “time of maximal blood concentration post dose” value [5, 18]?
The value was 0.5 h.

Which “blood concentration of test item (lower limit of quantification)” value ([5]; mice, single oral 96.5 μmol/kg Example 2, not found in all blood samples) does the source give for C[N+](C)(C)CCOP(=O)(O)OP(=O)([O-])OC[C@H]1O[C@@H](n2ccc(NO)nc2=O)[C@H](O)[C@@H]1O [Example 2, 2-(((((((2R,3S,4R,5R)-3,4-Dihydroxy-5-(4-(hydroxyamino)-2-oxopyrimidin-1 (2H)-yl)tetrahydrofuran-2-yl)methoxy) (hydroxy)phosphoryl)oxy)oxidophosphoryl)oxy)-N,N,N-trimethylethan-1-aminium triethylammonium salt] here?
Its value is under 14.4 nM.

What does the source list for [2H]C([2H])([2H])Oc1cccc(-c2ccc(NC(=O)C3=C(C(=O)O)CCC3)c(F)c2)c1 [Example 50, 2-((3-Fluoro-3′-(methoxy-d3)-[1,1′-biphenyl]-4-yl)carbamoyl) cyclopent-1-ene-1-carboxylic acid]?
microsomal stability [8]: improved; EC50 [3]: < 10 µM; RSV Virus Titers ([9]; Conc. 0.0079 μM): 3.7 CCID50/mL (Log10); RSV Virus Titers ([9]; Conc. 0.025 μM): 3.7 CCID50/mL (Log10); RSV Virus Titers ([9]; Conc. 0.079 μM): 3.5 CCID50/mL (Log10); RSV Virus Titers ([9]; Conc. 0.25 μM): 3.5 CCID50/mL (Log10); RSV Virus Titers ([9]; Conc. 0.79 μM): 3.5 CCID50/mL (Log10); RSV Virus Titers ([9]; Conc. 2.5 μM): 2.0 CCID50/mL (Log10); RSV Virus Titers ([9]; Conc. 7.9 μM): 2.0 CCID50/mL (Log10); RSV Virus Titers ([9]; Conc. 25 μM): <0.7 CCID50/mL (Log10); HRV-14 Virus Titers ([10]; Conc. 0.0079 μM): 6.7 CCID50/mL (Log10); HRV-14 Virus Titers ([10]; Conc. 0.025 μM): 6.7 CCID50/mL (Log10); HRV-14 Virus Titers ([10]; Conc. 0.079 μM): 7.0 CCID50/mL (Log10); HRV-14 Virus Titers ([10]; Conc. 0.25 μM): 6.7 CCID50/mL (Log10); HRV-14 Virus Titers ([10]; Conc. 0.79 μM): 6.7 CCID50/mL (Log10); HRV-14 Virus Titers ([10]; Conc. 2.5 μM): 7.0 CCID50/mL (Log10); HRV-14 Virus Titers ([10]; Conc. 7.9 μM): 4.0 CCID50/mL (Log10); HRV-14 Virus Titers ([10]; Conc. 25 μM): 3.5 CCID50/mL (Log10); CC50 [4]: > 100 µM

With CC(C)C(=O)OC[C@H]1O[C@@H](n2ccc(NO)nc2=O)[C@H](O)[C@@H]1O [molnupiravir, reference compound] as the molecule, how does the solubility ([11]; Solubility 1st) read?
Its solubility is 247 µM (≈ 81.3 µg/mL).

And the solubility ([11]; Solubility 2nd)?
Its solubility is 291 µM (≈ 95.7 µg/mL).

What about the solubility ([11]; Solubility Mean) of the same molecule?
Its solubility is over 200 µM.

What about the solubility ([12]; Solubility 1st) of the same molecule?
Its solubility is 302 µM (≈ 99.3 µg/mL).

What about the solubility ([12]; Solubility 2nd) of the same molecule?
The solubility was 329 µM (≈ 108 µg/mL).

What about the solubility ([12]; Solubility Mean) of the same molecule?
The solubility was over 200 µM.

What about the solubility ([13]; Solubility 1st) of the same molecule?
The solubility was 258 µM (≈ 84.9 µg/mL).

What about the solubility ([13]; Solubility 2nd) of the same molecule?
The solubility was 293 µM (≈ 96.4 µg/mL).

And the solubility ([13]; Solubility Mean)?
The solubility was over 200 µM.

And the logD [14]?
Its logD is 0.39.

And the recovery at 10 µM [15, 19]?
Its recovery at 10 µM is 70%.

And the recovery at 10 µM [15, 20]?
The recovery at 10 µM was 71%.

And the recovery at 10 µM [15, 21]?
The recovery at 10 µM was 71%.

What about the Papp at 10 µM [15, 22] of the same molecule?
Its Papp at 10 µM is 0.19 ×10⁻⁶ cm/s.

What about the Papp at 10 µM [15, 23] of the same molecule?
The Papp at 10 µM was 0.13 ×10⁻⁶ cm/s.

What about the Papp at 10 µM [15, 24] of the same molecule?
The Papp at 10 µM was 0.2 ×10⁻⁶ cm/s.

And the recovery at 10 µM [16, 19]?
Its recovery at 10 µM is 90%.

And the recovery at 10 µM [16, 20]?
Its recovery at 10 µM is 89%.

What about the recovery at 10 µM [16, 21] of the same molecule?
Its recovery at 10 µM is 89%.

What about the Papp at 10 µM [16, 22] of the same molecule?
Its Papp at 10 µM is 0.26 ×10⁻⁶ cm/s.

What about the Papp at 10 µM [16, 23] of the same molecule?
The Papp at 10 µM was 0.27 ×10⁻⁶ cm/s.

And the Papp at 10 µM [16, 24]?
The Papp at 10 µM was 0.3 ×10⁻⁶ cm/s.

Which logD [2] does the source give for O=c1nc(NO)ccn1[C@@H]1O[C@H](COP(=O)(O)OP(=O)(O)O)[C@@H](O)[C@H]1O [NHC-DP, β-D-N^4-hydroxycytidine 5′-diphosphate] here?
The logD was 0.12.

— US20250032527A1, “MEDICAL USE OF N4-HYDROXY CITICOLINE COMPOUNDS” (IMMUNIC AG, priority 2021, published 2025)
